In this assay the test system is SKIN1. As to the kind of experiment: Quantitative RT-PCR of SKIN1 mRNA in leaves of 2-week-old rice seedlings after stress or ABA. In kind it is in vivo. The following applies: 24 h after 1 μM ABA. Here is the method: FIG. 9. The expression of SKIN is induced by various abiotic stresses and ABA, and SKINs promote the ABA sensitivity. (A) Total RNA was purified from leaves of 2-week-old rice seedlings that had been air dried, treated with 200 mM salt, incubated at 4° C., or treated with 1 μM ABA, or from embryos of seedlings grown underwater (hypoxia), for various lengths of time. RNAs were subjected to quantitative RT-PCR analysis using primers specific for SKIN1 and SKIN2. The highest mRNA level was set as 100%. The lowest mRNA level was assigned a value of 1× and mRNA levels of other samples were calculated relative to this value. Error bars indicate the SE for three replicate experiments. (B) Seeds of transgenic lines SKIN1-Ox(O3), SKIN1-Ri(R3), SKIN2-Ox(02) and SKIN2-Ri(R1) were germinated and grown in water containing various concentrations of ABA at 28° C. under a 14-h light/10-h dark cycle for 6 days. Lengths of shoots were measured. Error bars represent SE (n=8) at significance levels: * p<0.1, ** p<0.05. […]
Total RNA was extracted from leaves of rice seedlings with the Trizol reagent (Invitrogen) and treated with RNase-free DNase I (Promega, Madison, Wis.). […] The quantitative variation between different samples was evaluated by the delta-delta CT method, and the amplification of 18S ribosomal RNA was used as an internal control to normalize all data.

Turning to `CC1=CC(=O)CC(C)(C)[C@@]1(O)/C=C/C(C)=C\C(=O)O` [ABA, abscisic acid], the “Induction of SKIN1 mRNA accumulation” value is recorded as not above 4.2 fold.

The record behind these values is US20180273970A1, “PLASMID, TRANSFORMED PLANT CELL AND TRANSGENIC PLANT COMPRISING THE SAME, AND METHODS FOR PREPARING A TRANSGENIC PLANT AND FOR INCREASING YIELD OF A PLANT UNDER ABIOTIC STRESSES” (Academia Sinica, priority 2014, published 2018).
